As a reminder, the inhibition in vivo is the relative decrease from the control value, in per cent.

Holding throughout (assay type): functional
Assay [1] relates to Toxocara canis. Kind of assay: Antiparasitic activity against Toxocara canis assessed as relative mobility at 1 to 10000 uM measured after 24 hrs by. The conditions noted are these: dose 1-10000 µM, read-out: ED50 (the source's name).
Assay [2] relates to Toxocara canis. Kind of assay: Antiparasitic activity against Toxocara canis assessed as relative mobility.
The subject of assay [3] is Toxocara vitulorum. Kind of assay: Antiparasitic activity against Toxocara vitulorum infected in assessed as decrease in number of larvae in lung at 40 mg/kg,po measured after 7 days. The conditions noted are these: 168 h, time 7 day.
Assay [4] deals with Toxocara vitulorum. As to the kind of experiment: Antiparasitic activity against Toxocara vitulorum infected in assessed as decrease in number of larvae in liver at 40 mg/kg,po measured after 7 days. The settings on record: 168 h, time 7 day.
Assay [5] concerns Toxocara canis. As to the kind of experiment: Antiparasitic activity against Toxocara canis assessed as larvicidal activity at 1100 uM measured after 48 hrs relative to control.
Assay [6] relates to Toxocara canis. As to the kind of experiment: Antiparasitic activity against Toxocara canis infected in dog assessed as egg burden reduction at 50 mg/kg,po measured after 3 days. More on the design: scale not given: the % may be the effect or the level left. The settings on record: time 3 day.
Assay [7] concerns Toxocara cati. Kind of assay: Antiparasitic activity against Toxocara cati infected in cat assessed as worm burden reduction at 50 mg/kg, po measured after 2 days. The settings on record: time 2 day. More on the design: scale not given: the % may be the effect or the level left.
Assay [8] deals with Toxocara cati. Kind of assay: Antiparasitic activity against Toxocara cati infected in cat assessed as worm burden reduction at 25 mg/kg,po measured after 3 days. On the set-up: scale not given: the % may be the effect or the level left. The conditions noted are these: time 3 day.
For assay [9], the system named is Toxocara canis. As to the kind of experiment: Antiparasitic activity against Toxocara canis infected in mouse assessed as worm burden reduction in muscles at 25 mg/kg,sc administered twice a day for 5 days relative to control. On the set-up: scale not given: the % may be the effect or the level left. The settings on record: time 5 day.
Assay [10] relates to Toxocara canis. Kind of assay: Antiparasitic activity against Toxocara canis infected in mouse assessed as worm burden reduction in brain at 25 mg/kg,sc administered twice a day for 5 days relative to control. More on the design: scale not given: the % may be the effect or the level left. The conditions noted are these: time 5 day.
The test system of assay [11] is Toxocara canis. Kind of assay: Antiparasitic activity against Toxocara canis infected in mouse assessed as worm burden reduction in muscles at 25 mg/kg,po or sc administered twice a day for 5 days relative to control. On the set-up: scale not given: the % may be the effect or the level left. The settings on record: time 5 day.
Assay [12] deals with Toxocara canis. As to the kind of experiment: Antiparasitic activity against Toxocara canis assessed as larvicidal activity at 192 uM measured after 48 hrs relative to control.
Assay [13] relates to Toxocara canis. Kind of assay: Antiparasitic activity against Toxocara canis j2 larvae assessed as relative mobility at 18 uM measured after 48 hrs.
The subject of assay [14] is Toxocara canis. As to the kind of experiment: Antiparasitic activity against Toxocara canis infected in mouse assessed as worm burden reduction in muscles at 350 mg/kg,sc administered twice a day relative to control. More on the design: scale not given: the % may be the effect or the level left.
The subject of assay [15] is Toxocara canis. Kind of assay: Antiparasitic activity against Toxocara canis infected in mouse assessed as worm burden reduction in brain at 150 mg/kg,sc administered twice a day relative to control. More on the design: scale not given: the % may be the effect or the level left.
Assay [16] deals with Toxocara canis. Kind of assay: Antiparasitic activity against Toxocara canis infected in mouse assessed as worm burden reduction in brain at 25 mg/kg,po or sc administered twice a day for 5 days relative to control. More on the design: scale not given: the % may be the effect or the level left. The conditions noted are these: time 5 day.
Assay [17] deals with Toxocara canis. As to the kind of experiment: Antiparasitic activity against Toxocara canis infected in mouse assessed as worm burden reduction in brain at 100 mg/kg,po administered twice a day for 5 days relative to control. The settings on record: time 5 day. More on the design: scale not given: the % may be the effect or the level left.

Turning to `COc1cc2c(cc1OC)-c1c(C)c3ccc(OC)c(OC)c3c[n+]1CC2` [DEHYDROCORYDALINE], the EC50 in the assay on Toxocara canis [1] came to 295 µM. As to `OCCCC1NCCc2c1[nH]c1ccccc21` (stereo not given), the ED in the assay with Toxocara canis [2] came out at 59.9 µM. Take `Cc1ccc(C(C)C)c(O)c1` [THYMOL]: the inhibition in vivo at 40 mg/kg with Toxocara vitulorum [3] was found to be 66.7%; in the assay on Toxocara vitulorum [4], 58.5%. Consider `COc1ccc2c(c1OC)CN(C)CCc1cc3c(cc1C(=O)C2)OCO3` [ALLOCRYPTOPINE], for which the EC50 in the assay with Toxocara canis [1] stood at 349 µM. Regarding `C=CCOC1=CC(=O)c2ccccc2C12CO2` (stereo not given), in the assay with Toxocara canis [5], the Activity stood at 100%. On the same count and under the same terms, for `CC1(C)CCC2=C(O1)C1(CO1)C1=C(CCCC1)C2=O` (stereo not given) the value was 100%. As to `O=C(Nc1ccc(N=C=S)cc1Cl)c1cc(Br)cc(Br)c1O`, the Activity in the assay on Toxocara canis [6], with Toxocara cati [7] and in the assay on Toxocara cati [8] was 100% each time. For the molecule `COC(=O)Nc1nc2cc(Sc3ccccc3)ccc2[nH]1` [FENBENDAZOLE], the values for the Activity with Toxocara canis [9], in the assay with Toxocara canis [10] and with Toxocara canis [11] were 55.7%, 44.7% and 89.5%, respectively. As to `CC1(C)CC2=C(O1)C1(CO1)c1ccccc1C2=O` (stereo not given), the Activity with Toxocara canis [5] is given as 100%. On to `CC1(C)CCC2=C(O1)C1(CO1)c1ccccc1C2=O` (stereo not given), for which the Activity in the assay on Toxocara canis [5] and with Toxocara canis [12] was 100% each time. Regarding `CCCSc1ccc2c(c1)nc(NC(=O)OC)n2COC(C)=O`, the Activity in the assay on Toxocara canis [13] was determined as 30%.

On to `O=C1C(Cl)=C(Cl)C2(CO2)c2ccccc21` (stereo not given), for which the Activity in the assay with Toxocara canis [5] is 100%. As to `CCCSc1ccc2[nH]c(NC(=O)OC)nc2c1` [ALBENDAZOLE], the Activity in the assay on Toxocara canis [14] is 37.5%; in the assay on Toxocara canis [15], 54.2%; in the assay with Toxocara canis [9], 70%; in the assay with Toxocara canis [10], 92.2%; in the assay with Toxocara canis [16], 66.1%; with Toxocara canis [17] it was 100%. In the case of `COc1ccc(Cc2nccc3cc(OC)c(OC)cc23)cc1OC` [PAPAVERINE], in the assay with Toxocara canis [1], the EC50 was 250 µM.

Values taken from ChEMBL document CHEMBL5346919, “Toward anthelmintic drug candidates for toxocariasis: Challenges and recent developments” (2023).
